# Measurements from US12622901B2, “Compounds for tau protein degradation” (Dana-Farber Cancer Institute, Inc., priority 2017, dated 2026).
# “Also recorded” adds a separate entry of the source. Where two headings read alike, the source gives them in different places.
# Experiments:
# tau protein [1] = target: T1, tau protein (Homo sapiens, UniProt P10636, A469T); test: Tau degradation assay (western blot) in human tau-A152T neurons; format: cell-based
# T1 construct: cultured human differentiated frontotemporal lobar dementia (FTD) neurons; endogenous in cells; host or cells: human differentiated FTD neurons, tau-A152T (line 19-5-RC6)
# Protocol: Example compounds 1-12 were evaluated for their ability to degrade tau protein in cultured human differentiated frontotemporal lobar dementia (FTD) neurons. […] For each condition, 1 well of differentiated neuronal cells (6 well-plate) was washed and collected in PBS, pelleted and lysed in RIPA buffer (Boston Bio-Products) with 2% SDS (Sigma), protease inhibitors (Roche Complete Mini tablets), and phosphatase inhibitors (Sigma), followed by sonication in a water sonicator (Bransonic Ultrasonic Baths, Thomas Scientific) for 5 min, and centrifugation at 20,000 g for 15 min. Supernatants were transferred to new tubes, total protein concentration was quantified with the Pierce BCA Protein Assay Kit (Thermo), and SDS-PAGE gels were loaded with 10 μg total protein per well (pre-boiled samples). Western blots were performed with the Novex NuPAGE SDS-PAGE Gel System (Invitrogen). All samples were resolved in 7% Tris-Acetate gels with Tris-Acetate running buffer (Invitrogen). Blots were probed with antibodies against total tau (TAU5) and phosphosrylated tau (Ser396), along with β-actin as a loading control; followed by corresponding HRP-linked secondary antibodies (Cell Signaling Technology), and SuperSignal West Pico Chemiluminescent Substrate (Thermo) detection. Membranes were exposed to autoradiographic film (LabScientific) and films were scanned using an Epson Perfection V800 Photo Scanner. Protein band intensities (pixel mean intensity) were quantified using Adobe Photoshop CS5 Histogram function. Whereas the vehicle alone (DMSO) had no effect on tau, varying degrading activity was observed amongst the compounds, however with overall similar relative levels of degrading activity between tau-A152T neurons and tau-P301L neurons. Compounds were added at the doses indicated of either 0.1, 1, 5, or 10 μM.
# (§1) Four-week differentiated neurons, both non-mutant (8330-8) and tau-A152T (19-5-RC6) were employed. The neurons were treated with T807 for 24 hours (at 10 μg/mL=59.4 μM). One well of differentiated neuronal cells (6 well-plate, treated or untreated) was washed and collected in PBS, pelleted and directly lysed in 200 μL of Sample Buffer (New England Biolabs) supplemented with 3X DTT, boiled for 15 min and 10 μL of each lysate was run by SDS-PAGE in a 4-12% Bis-Tris Gel, with MOPS running buffer. Blots were probed with antibodies to total tau (DA9) and phosphorylated tau (Ser396, PHF1, AT8) along with GAPDH as a loading control.
# Example compounds 2-5 were reevaluated for their ability to degrade tau protein in human FTD neurons as well as evaluate their effect on E3 ubiquitin ligases CRBN, VHL, and CHIP (FIG. 4A-E). For each control and treatment, 1 well of differentiated neuronal cells (6 well-plate) was washed and collected in PBS, pelleted and lysed in RIPA buffer (Boston Bio-Products) with 2% SDS (Sigma), protease inhibitors (Roche Complete Mini tablets), and phosphatase inhibitors (Sigma), followed by sonication in a water sonicator (Bransonic Ultrasonic Baths, Thomas Scientific) for 5 min, and centrifugation at 20,000 g for 15 min. Supernatants were transferred to new tubes, total protein concentration was quantified with the Pierce BCA Protein Assay Kit (Thermo), and SDS-PAGE gels were loaded with 10 μg total protein per well (pre-boiled samples). […] Protein band intensities (pixel mean intensity) were quantified using Adobe Photoshop CS5 Histogram function. […]
# A152T neurons [2] = test: Neuronal viability / rescue of stress vulnerability to β-amyloid (1-42) peptide; conditions: A152T neurons differentiated 8 weeks; compound alone; FIG. 7
# tau protein [3] = target: T2, tau protein (Homo sapiens, UniProt P10636); test: Tau degradation assay (western blot) in non-mutant control human neurons; format: cell-based
# T2 construct: Four-week differentiated neurons, both non-mutant (8330-8) and tau-A152T (19-5-RC6) were employed; endogenous in cells; host or cells: human differentiated non-mutant control neurons (8330-8, 8330-8-RC1, CTR2-L17-RC2)
# Protocol: as §1
# Example compounds 2-5 were again evaluated in tau degradation assays in non-mutant control, A152T and P301L neurons (6-week differentiated). Non-mutant neurons were employed as a negative control since derivatives of T807 should not recognize non-disease states of tau based upon how the series was identified, using selection for binding to pathological forms of tau in post-mortem brain lysates and tissue slices. […] Supernatants were transferred to new tubes, total protein concentration was quantified with the Pierce BCA Protein Assay Kit (Thermo), and SDS-PAGE gels were loaded with 10 μg total protein per well (pre-boiled samples). […] Protein band intensities (pixel mean intensity) were quantified using Adobe Photoshop CS5 Histogram function. […]
# tau protein [4] = target: T3, tau protein (Homo sapiens, UniProt P10636, P618L); test: Tau degradation assay (western blot) in human tau-P301L neurons; format: cell-based
# T3 construct: cultured human differentiated frontotemporal lobar dementia (FTD) neurons; endogenous in cells; host or cells: human differentiated FTD neurons, tau-P301L
# Protocol: Example compounds 1-12 were evaluated for their ability to degrade tau protein in cultured human differentiated frontotemporal lobar dementia (FTD) neurons. […] For each condition, 1 well of differentiated neuronal cells (6 well-plate) was washed and collected in PBS, pelleted and lysed in RIPA buffer (Boston Bio-Products) with 2% SDS (Sigma), protease inhibitors (Roche Complete Mini tablets), and phosphatase inhibitors (Sigma), followed by sonication in a water sonicator (Bransonic Ultrasonic Baths, Thomas Scientific) for 5 min, and centrifugation at 20,000 g for 15 min. Supernatants were transferred to new tubes, total protein concentration was quantified with the Pierce BCA Protein Assay Kit (Thermo), and SDS-PAGE gels were loaded with 10 μg total protein per well (pre-boiled samples). Western blots were performed with the Novex NuPAGE SDS-PAGE Gel System (Invitrogen). […] Protein band intensities (pixel mean intensity) were quantified using Adobe Photoshop CS5 Histogram function. […]
# Example compounds 2-5 were reevaluated for their ability to degrade tau protein in human FTD neurons as well as evaluate their effect on E3 ubiquitin ligases CRBN, VHL, and CHIP (FIG. 4A-E). […] Supernatants were transferred to new tubes, total protein concentration was quantified with the Pierce BCA Protein Assay Kit (Thermo), and SDS-PAGE gels were loaded with 10 μg total protein per well (pre-boiled samples). […]
# A152T neurons [5] = system: A152T neurons
# T2 sequence (P10636 1-441 isoform P10636-8): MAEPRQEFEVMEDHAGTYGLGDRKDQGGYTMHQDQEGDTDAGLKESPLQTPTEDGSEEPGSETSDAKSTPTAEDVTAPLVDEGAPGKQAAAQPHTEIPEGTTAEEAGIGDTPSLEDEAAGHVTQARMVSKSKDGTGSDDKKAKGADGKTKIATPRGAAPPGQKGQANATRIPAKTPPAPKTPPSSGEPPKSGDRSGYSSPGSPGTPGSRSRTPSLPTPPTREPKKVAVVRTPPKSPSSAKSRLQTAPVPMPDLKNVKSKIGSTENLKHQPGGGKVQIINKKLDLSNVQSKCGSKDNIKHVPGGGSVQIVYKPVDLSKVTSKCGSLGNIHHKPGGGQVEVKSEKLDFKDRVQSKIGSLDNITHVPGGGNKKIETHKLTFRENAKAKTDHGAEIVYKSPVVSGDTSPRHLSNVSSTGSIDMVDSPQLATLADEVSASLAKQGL
# T1 sequence (P10636 1-441 isoform P10636-8 A152T): as the sequence (P10636 1-441 isoform P10636-8) above, with A152T counted along it
# T3 sequence (P10636 1-441 isoform P10636-8 P301L): as the sequence (P10636 1-441 isoform P10636-8) above, with P301L counted along it
compound,measurement,setting,value
"O=C(CCc1ccc2c(c1)[nH]c1ccncc12)NCCOCCNc1cccc2c1C(=O)N(C1CCC(=O)NC1=O)C2=O (stereo not shown) [Compound 2, N-(2-(2-((2-(2,6-dioxopiperidin-3-yl)-1,3-dioxoisoindolin-4-yl)amino)ethoxy)ethyl)-3-(5H-pyrido[4,3-b]indol-7-yl)propanamide]",dose-dependency of effect on tau,"tau protein [1]; 6-week differentiated A152T neurons, treatment for 24 hours, FIG. 6",dose dependent effect on tau
same,effect on neuronal viability,A152T neurons [2],no effect on neuronal viability
Fc1ccc(-c2ccc3c(c2)[nH]c2ccncc23)cn1 [Compound T807],effect on total tau and phosphorylated tau levels,"tau protein [3]; non-mutant (8330-8) neurons, four-week differentiated, 24 h at 10 μg/mL=59.4 μM, FIG. 3",No significant tau lowering activity; also recorded: no effect on tau levels and did not degrade tau
same,effect on total tau and phospho-tau (S396) levels,"tau protein [3]; non-mutant control neurons, 6-week differentiated, 1 μM, FIG. 5",no effect
same,effect on total tau and phospho-tau (S396) levels,"tau protein [1]; A152T neurons, 6-week differentiated, 1 μM, FIG. 5",no effect
same,effect on total tau and phosphorylated tau levels,"tau protein [1]; tau-A152T (19-5-RC6) neurons, four-week differentiated, 24 h at 10 μg/mL=59.4 μM, FIG. 3",No significant tau lowering activity; also recorded: no effect on tau levels and did not degrade tau
same,effect on total tau and phospho-tau (S396) levels,"tau protein [4]; P301L neurons, 6-week differentiated, 1 μM, FIG. 5",no effect
Nc1cccc2c1CN(C1CCC(=O)NC1=O)C2=O (stereo not shown) [Lenalidomide],effect on total tau and hyperphosphorylated tau levels,"tau protein [1]; tau-A152T neurons, 5-week differentiated, 24 h treatment, 0.1, 1, 5 or 10 μM (lenalidomide 1 or 10 μM), TAU5, pSer396",no effect on tau levels
same,effect on total tau and hyperphosphorylated tau levels,"tau protein [4]; tau-P301L neurons, 8-week differentiated, 24 h treatment, 0.1, 1, 5 or 10 μM (lenalidomide 1 or 10 μM), TAU5, pSer396",no effect on tau levels
"N-(17-(2-((2-(2,6-dioxopiperidin-3-yl)-1,3-dioxoisoindolin-4-yl)amino)-3,6,9,12,15-pentaoxaheptadecyl)-3-(5H-pyrido[4,3-b]indol-7-yl)propanamide [Compound 5]",effect on neuronal viability,A152T neurons [5],no effect on neuronal viability
